The test system of series [1] is HeLa cells. The series can be described thus: Cytotoxicity, MTT test. The class given is cell-based. The procedure:
The toxic effect of the substances was investigated using the MTT test. To this end, HeLa cells were seeded at a density of 2×10^4 cells per cavity of a 96-well titer plate and cultured for two days. Liposomes of varying composition (see Table) were added to the cells at a concentration of 0.5 mM and incubated with these cells for 24 hours. Subsequently, the MTT test was performed.

The nature of series [2]: Chelating of metal ions (zeta potential of liposomes). The class given is physicochemical. As to conditions: compound in the liposome membrane. The procedure:
Liposomes are produced as in Example 4. 40 μl of these liposomes are suspended in 7 ml of buffer (10 mM potassium acetate, 10 mM HEPES, pH 4.2 or pH 7.5). Subsequently, the metal ions are added with the concentrations as indicated, and the zeta potential of the liposomes is measured.

Turning to “Histaminylethaneamine-cholesterol hemisuccinate [His-Chol]”, the “toxic effect in the MTT test (in words)” value in series [1] is listed as “lesser toxic effects”. The “chelating of metal ions by liposomes including the compound (in words)” value in series [2] is listed as “capable of chelating metal ions”.

Turning to `CC(C)CCC[C@@H](C)[C@H]1CC[C@H]2[C@@H]3CC=C4C[C@@H](OC(=O)NCCN(C)C)CC[C@]4(C)[C@H]3CC[C@]12C` [DC-Chol, N,N-Dimethyl (2-aminoethyl) carbamoylcholesterol], the “toxic effect in the MTT test (in words)” value in series [1] is recorded as “significant cytotoxic effect”.

Regarding `CCCCCCCC/C=C\CCCCCCCC(=O)OCC(C[N+](C)(C)C)OC(=O)CCCCCCC/C=C\CCCCCCCC` (stereo not shown) [DOTAP], in series [1], the “toxic effect in the MTT test (in words)” value was “significant cytotoxic effect”.
